Experimental findings from patent US20250230193A1, “CYCLIC COMPOUND HAVING SELECTIVE KRAS INHIBITORY EFFECT ON HRAS AND NRAS” (CHUGAI SEIYAKU KABUSHIKI KAISHA, priority 2022, published 2025) are described below.

Assay [1] deals with GDP-bound NRAS wild-type protein (Homo sapiens, UniProt P01111). As to the kind of experiment: Binding to NRAS by surface plasmon resonance (SPR), Single Cycle Kinetics. Background: In SPR one partner is held on a chip, and binding of the other changes the refractive index at the surface.
Assay [2] concerns the target GDP-bound HRAS wild-type protein (Homo sapiens, UniProt P01112). As to the kind of experiment: Binding to HRAS by surface plasmon resonance (SPR), Single Cycle Kinetics.
[3] abbreviates: KD ratio, GDP-bound NRAS wild-type vs GDP-bound KRAS wild-type, SPR.
[4] abbreviates: KD ratio, GDP-bound HRAS wild-type vs GDP-bound KRAS wild-type, SPR.

*1 amine or outer side, *2 acyl side, *3 side chain or, on linkers, in order; H or OH if unused. Where a SMILES comes first, the peptide text is derived from it. Bridges are numbered along the chain shown (N, C = ends). [ ]: non-standard residue; d: D form. The star is where a group is joined. hPhe(3-Cl-4-CF3) = N[C@@H](CCc1ccc(C(F)(F)F)c(Cl)c1)C(=O)O; NPrPhe(4-CF3) = CCCN[C@@H](Cc1ccc(C(F)(F)F)cc1)C(=O)O; NEtPhe(4-CF3) = CCN[C@@H](Cc1ccc(C(F)(F)F)cc1)C(=O)O; X49 = Cc1ccc(C[C@@H](C(=O)[*:2])N(CC2CC2)[*:1])cc1; NMeGly(cPent) = CN[C@H](C(=O)O)C1CCCC1; NMeNva(3-Et) = CCC(CC)[C@H](NC)C(=O)O; NMeD = CN[C@@H](CC(=O)O)C(=O)O; NMeL = CN[C@@H](CC(C)C)C(=O)O; Morpholide = C1CN(*)CCO1; NMeA = CN[C@@H](C)C(=O)O; Ac5c = NC1(C(=O)O)CCCC1; Aze = O=C(O)[C@@H]1CCN1; Ac4c = NC1(C(=O)O)CCC1; Aib = CC(C)(N)C(=O)O; Sar = CNCC(=O)O

GDP-bound NRAS wild-type protein, sequence (P01111 whole entry): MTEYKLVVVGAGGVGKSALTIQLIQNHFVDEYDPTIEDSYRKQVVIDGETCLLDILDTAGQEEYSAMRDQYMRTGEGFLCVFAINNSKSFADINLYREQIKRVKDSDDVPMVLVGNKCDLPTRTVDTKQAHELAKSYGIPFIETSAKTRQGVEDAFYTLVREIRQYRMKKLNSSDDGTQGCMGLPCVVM
GDP-bound HRAS wild-type protein, sequence (P01112 whole entry): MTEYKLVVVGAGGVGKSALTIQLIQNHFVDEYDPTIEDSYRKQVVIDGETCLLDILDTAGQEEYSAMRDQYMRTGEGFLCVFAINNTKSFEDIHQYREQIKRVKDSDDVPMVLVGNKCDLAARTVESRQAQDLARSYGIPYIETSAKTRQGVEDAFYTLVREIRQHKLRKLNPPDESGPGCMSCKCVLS

In the case of `CC[C@H](C)[C@@H]1NC(=O)[C@H](CC(C)C)N(C)C(=O)C[C@@H](C(=O)N2CCOCC2)N(C)C(=O)[C@H](C2CCCC2)N(C)C(=O)C(C)(C)NC(=O)[C@@H]2CCCN2C(=O)[C@H](CCc2ccc(C(F)(F)F)c(Cl)c2)NC(=O)CN(C)C(=O)[C@H](Cc2ccc(C(F)(F)F)cc2)N(CC)C(=O)CN(C)C(=O)CN(C)C1=O` [PP0235] ([NMeL]I[Sar][Sar][NEtPhe(4-CF3)][Sar][hPhe(3-Cl-4-CF3)]P[Aib][NMeGly(cPent)][NMeD]-Morpholide; lactam N-11), the “NRAS/KRAS (ratio of KD for GDP-bound NRAS wild-type to KD for KRAS)” value in assay [1] (KD ratio NRAS/KRAS, SPR) was “B (a compound having 3 or more and less than 10 is denoted as B)”. Moreover, the “HRAS/KRAS (ratio of KD for GDP-bound HRAS wild-type to KD for KRAS)” value in assay [2] (KD ratio HRAS/KRAS, SPR) is “C (A compound having a KD ratio of 0.1 or more and less than 3 is denoted as C)”.
With `CC[C@H](C)[C@@H]1NC(=O)[C@H](CC(C)C)N(C)C(=O)C[C@@H](C(=O)N2CCOCC2)N(C)C(=O)[C@H](C2CCCC2)N(C)C(=O)C2(CCC2)NC(=O)[C@@H]2C[C@@H](O)CN2C(=O)[C@H](CCc2cc(F)c(C(F)(F)F)c(F)c2)NC(=O)CN(C)C(=O)[C@H](Cc2ccc(C(F)(F)F)cc2)N2CCCC[C@@H](C2=O)N(C)C(=O)CN(C)C1=O` [PP0868], the “NRAS/KRAS (ratio of KD value with respect to NRAS to KD value with respect to KRAS)” value in assay [1] (setting [3]) is “C (A compound having a KD ratio of 0.1 or more and less than 3 is denoted as C)”. In assay [2] (setting [4]), the “HRAS/KRAS (ratio of KD value with respect to HRAS to KD value with respect to KRAS)” value was “B (a compound having 3 or more and less than 10 is denoted as B)”.
With `CC[C@H](C)[C@@H]1NC(=O)[C@H](CC(C)C)N(C)C(=O)C[C@@H](C(=O)N2CCOCC2)N(C)C(=O)[C@H](C2CCCC2)N(C)C(=O)C2(CCC2)NC(=O)[C@@H]2C[C@@H](OCC3CCCC3)CN2C(=O)[C@H](CCc2cc(F)c(C(F)(F)F)c(F)c2)NC(=O)CN(C)C(=O)[C@H](Cc2ccc(C(F)(F)F)cc2)N2CCCC[C@@H](C2=O)N(C)C(=O)CN(C)C1=O` [PP1015], the “NRAS/KRAS (ratio of KD value with respect to NRAS to KD value with respect to KRAS)” value in assay [1] (setting [3]) was “C (A compound having a KD ratio of 0.1 or more and less than 3 is denoted as C)”. Also, in assay [2] (setting [4]), the “HRAS/KRAS (ratio of KD value with respect to HRAS to KD value with respect to KRAS)” value was “C (A compound having a KD ratio of 0.1 or more and less than 3 is denoted as C)”.
In the case of `CC[C@H](C)[C@@H]1NC(=O)[C@H](CC(C)C)N(C)C(=O)C[C@@H](C(=O)N2CCOCC2)N(C)C(=O)[C@H](C2CCCC2)N(C)C(=O)C2(CCCC2)NC(=O)[C@@H]2CCCN2C(=O)[C@H](CCc2ccc(C(F)(F)F)c(Cl)c2)NC(=O)CN(C)C(=O)[C@H](Cc2ccc(C)cc2)N(CC2CC2)C(=O)[C@@H]2CCN2C(=O)[C@H](C)N(C)C1=O` [PP0057] ([NMeL]I[NMeA][Aze][X49][Sar][hPhe(3-Cl-4-CF3)]P[Ac5c][NMeGly(cPent)][NMeD]-Morpholide; lactam N-11), in assay [1] (KD ratio NRAS/KRAS, SPR), the “NRAS/KRAS (ratio of KD for GDP-bound NRAS wild-type to KD for KRAS)” value was “C (A compound having a KD ratio of 0.1 or more and less than 3 is denoted as C)”. Further, the “HRAS/KRAS (ratio of KD for GDP-bound HRAS wild-type to KD for KRAS)” value in assay [2] (KD ratio HRAS/KRAS, SPR) is “B (a compound having 3 or more and less than 10 is denoted as B)”.
`CCCN1C(=O)[C@@H]2CCN2C(=O)[C@H](C)N(C)C(=O)[C@H]([C@@H](C)CC)NC(=O)[C@H](CC(C)C)N(C)C(=O)C[C@@H](C(=O)N(C)C)N(C)C(=O)[C@H](C(CC)CC)N(C)C(=O)C2(CCC2)NC(=O)[C@@H]2CCCN2C(=O)[C@H](CCc2ccc(C(F)(F)F)c(Cl)c2)NC(=O)CN(C)C(=O)[C@@H]1Cc1ccc(C(F)(F)F)cc1` [PP1961] ([NMeL]I[NMeA][Aze][NPrPhe(4-CF3)][Sar][hPhe(3-Cl-4-CF3)]P[Ac4c][NMeNva(3-Et)][NMeD]-NMe2; lactam N-11): the “NRAS/KRAS (ratio of KD value for NRAS to KD value for KRAS)” value in assay [1] (setting [3]) is “C (A compound having a KD ratio of 0.1 or more and less than 3 is denoted as C)”. The “HRAS/KRAS (ratio of KD value for HRAS to KD value for KRAS)” value in assay [2] (setting [4]) was “C (A compound having a KD ratio of 0.1 or more and less than 3 is denoted as C)”.
As to `CCCC[C@H]1C(=O)N[C@@H]([C@@H](C)CC)C(=O)N(C)CC(=O)N(C)[C@H]2C/C=C\CCN(C2=O)[C@@H](Cc2ccc(C)cc2)C(=O)N(C)CC(=O)N[C@@H](CCc2cc(F)c(C(F)(F)F)c(F)c2)C(=O)N2C[C@H](OCC)C[C@H]2C(=O)NC2(CCC2)C(=O)N(C)[C@@H](C2CCCC2)C(=O)N(C)[C@H](C(=O)N(C)CC)CC(=O)N1C` [PP2796], the “NRAS/KRAS (ratio of KD value with respect to GDP-bound NRAS wild-type protein to KD value with respect to KRAS)” value in assay [1] (KD ratio NRAS/KRAS, class symbols) was “A (a compound having 10 or more and less than 20 is denoted as A)”. The “HRAS/KRAS (ratio of KD value with respect to GDP-bound HRAS wild-type protein to KD value with respect to KRAS)” value in assay [2] (KD ratio HRAS/KRAS, class symbols) was “A (a compound having 10 or more and less than 20 is denoted as A)”.
As for `CCO[C@@H]1C[C@H]2C(=O)NC3(CCC3)C(=O)N(C)[C@@H](C3CCCC3)C(=O)N(C)[C@H](C(=O)N(C)C)CC(=O)N(C)[C@H]3CCCCCc4ccc(cc4)C[C@@H](C(=O)N(C)CC(=O)N[C@@H](CCc4cc(F)c(C(F)(F)F)c(F)c4)C(=O)N2C1)N1CC/C=C\C[C@@H](C1=O)N(C)C(=O)CN(C)C(=O)[C@H]([C@@H](C)CC)NC3=O` [PP2261], the “NRAS/KRAS (ratio of KD value with respect to NRAS to KD value with respect to KRAS)” value in assay [1] (SPR, GDP-bound NRAS wild-type vs GDP-bound KRAS wild-type) is “A (a compound having 10 or more and less than 20 is denoted as A)”. Also, the “HRAS/KRAS (ratio of KD value with respect to HRAS to KD value with respect to KRAS)” value in assay [2] (SPR, GDP-bound HRAS wild-type vs GDP-bound KRAS wild-type) is “A (a compound having 10 or more and less than 20 is denoted as A)”.
